Measurements from the NIST ThermoML archive (doi:10.1021/je300045c).
Where “and” joins values, the source holds several entries; their conditions need not be identical. Equal values may be shown once.

Key:
[1] = xn = mol fraction of the nth substance listed; settings: 358.15 K, 101 kPa, Liquid; for electrical conductivity: Alternating current cell with electrodes; for viscosity: Falling or rolling sphere viscometry; for mass density: Vibrating tube method
[2] = molar heat capacity at constant pressure; wn = mass fraction of the nth substance listed; settings: 358.15 K, 101 kPa, Liquid, Small sample (50 mg) DSC

CCCCn1cc[n+](C)c1.CS(=O)(=O)[O-] [1-butyl-3-methylimidazolium methanesulfonate] + O
Settings	electrical conductivity [S/m]	mass density [kg/m3]	molar heat capacity at constant pressure	viscosity [mPa·s]
[1], x2 = 0	0.805	1134	–	–
[1], x2 = 0.012	0.821	1134	–	–
[1], x2 = 0.028	0.84	1134	–	–
[1], x2 = 0.049	0.871	1134	–	–
[1], x2 = 0.074	0.907	1133	–	–
[1], x2 = 0.106	0.955	1133	–	–
[1], x2 = 0.131	1	1132	–	–
[1], x2 = 0.14	–	1132	–	–
[1], x2 = 0.147	1.03	1132	–	–
[1], x2 = 0.156	1.06	–	–	–
[1], x2 = 0.159	–	1131	–	–
[1], x2 = 0.185	1.12	–	–	–
[1], x2 = 0.187	–	1130	–	–
[1], x2 = 0.203	1.14	1130	–	–
[1], x2 = 0.217	1.2	–	–	–
[1], x2 = 0.224	–	1129	–	–
[1], x2 = 0.252	1.29	–	–	–
[1], x2 = 0.27	1.3	1129	–	–
[1], x2 = 0.271	–	1128	–	–
[1], x2 = 0.306	1.44	–	–	–
[1], x2 = 0.329	–	1126	–	–
[1], x2 = 0.358	1.61	–	–	–
[1], x2 = 0.363	1.59	1126	–	–
[1], x2 = 0.4	–	1125	–	–
[1], x2 = 0.423	1.87	–	–	–
[1], x2 = 0.457	2	1124	–	–
[1], x2 = 0.478	–	1122	–	–
[1], x2 = 0.495	2.22	–	–	–
[1], x2 = 0.535	2.46	–	–	–
[1], x2 = 0.555	–	1121	–	–
[1], x2 = 0.556	2.58	1120	–	–
[1], x2 = 0.559	–	1120.7	–	7.514
[1], x2 = 0.61	3.02	–	–	–
[1], x2 = 0.628	–	1118	–	–
[1], x2 = 0.643	3.14	1116	–	–
[1], x2 = 0.654	–	1114.4	–	5.344
[1], x2 = 0.677	3.71	–	–	–
[1], x2 = 0.692	–	1113	–	–
[1], x2 = 0.702	–	1110.3	–	4.549
[1], x2 = 0.744	4.6	1106	–	–
[1], x2 = 0.749	–	1104.1	–	3.616
[1], x2 = 0.75	4.81	–	–	–
[1], x2 = 0.771	–	1105	–	–
[1], x2 = 0.801	–	1094.9	–	2.795
[1], x2 = 0.836	6.82	1087	–	–
[1], x2 = 0.842	7.27	–	–	–
[1], x2 = 0.848	–	1085	–	–
[1], x2 = 0.852	–	1081.2	–	2.048
[1], x2 = 0.878	9	–	–	–
[1], x2 = 0.886	–	1072	–	–
[1], x2 = 0.9	–	1062.3	–	1.486
[1], x2 = 0.925	–	1048.2	–	1.149
[1], x2 = 0.95	–	1029.7	–	0.834
[1], x2 = 0.975	–	1003.9	–	0.547
[2], w2 = 0.002	–	–	1.768 J/K/mol	–
[2], w2 = 0.014	–	–	1.793 J/K/mol	–
[2], w2 = 0.032	–	–	1.996 J/K/mol and 2.027 J/K/mol	–
[2], w2 = 0.087	–	–	2.267 J/K/mol	–
[2], w2 = 0.097	–	–	2.252 J/K/mol	–
[2], w2 = 0.15	–	–	2.244 J/K/mol	–
[2], w2 = 0.233	–	–	2.448 J/K/mol	–
[2], w2 = 0.429	–	–	2.926 J/K/mol	–
